In ChEMBL document CHEMBL1150706, “Novel chromones from Spathelia sorbifolia” (1987):
Values after ≈ are worked out from the molar mass of the structure shown.

Assay: Cytotoxicity against mouse 9PS cells
Assay type: functional
Conditions: read-out: ED50 (the source's name)

Row | SMILES | EC50 [mg/L]
1 | Cc1cc(=O)c2c(O)c3c(c(C(O)C(O)C(C)(C)O)c2o1)OC(C)(C)C=C3 (stereo not drawn) | 0.5 (≈ 1.33 µM)
2 | COc1c(/C=C/C(C)(C)O)c2c(c3oc(C)cc(=O)c13)C=CC(C)(C)O2 | 0.3 (≈ 0.842 µM)
3 | Cc1cc(=O)c2c(O)c3c(c(CC(O)C(C)(C)O)c2o1)OC(C)(C)C=C3 (stereo not drawn) [SPATHELIABISCHROMEN] | 3 (≈ 8.32 µM)
